The values that follow come from patent US6565872B2, “Polymeric system for drug delivery and solute separation” (priority 1999, dated 2003).

The data set can be described thus: Permeation of solutes through the composite membrane, side-by-side diffusion cell. It counts as physicochemical. The conditions noted are these: for P(45° C.)/P(20° C.) in 0.0001M KCl: permeability ratio across composite membrane, 45° C. vs 20° C. Here is the method:
Permeation of solutes of various molecular sizes through the membrane was determined using a side-by-side diffusion cell. The solution in the receptor cell was pumped to a UV cell with a peristaltic pump. The amount of solute permeated was assayed by a diode array spectrophotometer (HP 8452A). The pH of the medium was adjusted either by addition of sodium hydroxide and hydrochloric acid.

With Chymotrypsin, the “P(45° C.)/P(20° C.) in 0.0001M KCl” value is “No permeation at both”. Besides, the “penetration through the membrane” value (at the studied temperatures) is “could not penetrate through the membrane”.

Regarding Vitamin B12, the “P(45° C.)/P(20° C.) in 0.0001M KCl” value is listed as 11.0. For the setting “composite membrane, in the presence of CaCl2 (3.33×10^−2 mM, FIG. 7), calculated from slopes”, the “permeability at 45° C. relative to that at 20° C.” value is reported as “about 11 fold”. Besides, the “permeation across the membrane into water at 25° C.” value (water, 25° C. compared with 40° C. (FIG. 6)) was “almost negligible permeation”.

Take `CC(=O)Nc1ccc(O)cc1` [Acetaminophen]: the “P(45° C.)/P(20° C.) in 0.0001M KCl” value is on record as 2.20. In addition, under “composite membrane, DDI water (FIG. 5)”, the “ratio of the permeability at 40° C. to that at 25° C.” value is listed as “about 2.6 times”.
